According to patent USRE36854E, “Vitamin D compounds and method of preparing these compounds” (Duphar International Research B.V., priority 1997, dated 2000):

Key:
[1] = tested on: human leukemic cell line HL-60; assay: HL-60 cell differentiation assay (NBT reduction, non-specific esterase, May-Grunwald Giemsa); assay type: cell-based; settings: for induction of differentiation and maturation of the HL-60 cells: 10^-12 to 10^-6 M; for induction of differentiation and maturation of the HL-60 cells / differentiation in the cytological test (non-specific esterase and May-Grunwald Giemsa) / NBT-reduction inducing capacity relative to 1α,25-DHCC (fold stronger): HL-60; for concentration range of optimum effect: HL-60, cytological test; for NBT-reduction inducing capacity relative to 1α,25-DHCC (fold stronger): FIGS. 3 and 4
Procedure: Vitamin D compounds according to the invention are dissolved in ethanol in concentrations ranging from 10^-12 to 10^-6 M and tested for their capacity to induce cell differentiation in a HL-60 assay. In this assay, morphologic and biochemical examination of the human leukemic cell line HL-60 is done, in order to establish whether cell differentiation has taken place.
Differentiation is expressed as the maturation parameters nitroblue tetrazolium (NBT) reduction, non-specific esterase, and as the percentage of mature cells beyond the myelocyte stage which is visible after staining with May-Grunwald Giemsa. After culturing with the known 1α,25-DHCC or with vitamin D compounds of the invention, the percentage of cells containing black formazan deposits is determined. An increase in the percentage of NBT reducing cells indicates an increase in cell differentiation.
Proliferation and vitality of the cell cultures are established by counting the number of cells and by the trypan blue exclusion method.

[2] = tested on: intestinal cancer cell line Caco-2; assay: Caco-2 assay for intestinal calcium transport (45Ca2+ influx); assay type: cell-based; settings: for relative increase in Ca^2+ influx (1α,25-DHCC = 100): 10^-9 M
Procedure: The most well-known effect of 1α,25-DHCC is its action on the calcium metabolism, the calciotropic effect. Calciotropic target organs are the intestine, the bone and the kidney. The vitamin D compounds according to the invention are dissolved in ethanol and tested in the so-called Caco-2 assay for intestinal calcium (Ca) transport. In this assay, the vitamin D-induced influx of ^45 Ca^2+ is measured in monolayers of the intestinal cancer cell line Caco-2. This influx is corrected for the concentration-driven Ca^2+ influx and is a measure for the Ca transport across the intestinal wall. The Caco-2 cells are known to have vitamin D receptors. Increased intestinal calcium transport can be the first step leading to a rise in blood calcium levels (and eventually to hypercalcemia). […] The values in the table represent the relative increase in Ca^2 + influx (the value for 1α,25-DHCC is arbitrarily fixed at 100).

[3] = tested on: rabbit kidney cells; assay: Rabbit kidney cell assay (45Ca2+ reabsorption); assay type: cell-based; settings: rabbit renal cell cultures; for increase in Ca^2+ -reabsorption: 10^-9 M
Procedure: Together with the intestine and the bone, the kidney is one of the major target organs of 1α,25-DHCC. The kidney plays an extremely important role in calcium homeostasis, since about 98% of the calcium has to be reabsorbed in the kidneys in order to prevent calcium loss and hypocalcemia. The vitamin D compounds according to the invention are dissolved in ethanol and tested in the rabbit kidney cell assay. In this assay, reabsorption of ^45 Ca^2+ is measured in monolayers of rabbit kidney cells. The cells are isolated by immunodissection of connecting tubules with the aid of monoclonal antibodies. […] The values in the Table represent the increase in Ca^2+ -reabsorption in mmol/cm^2 /h.

[4] = tested on: HL-60 cells / intestinal Ca^2+ transport; assay: Cell differentiation versus calciotropic effect (ratio of HL-60 NBT reduction to intestinal Ca2+ transport); assay type: cell-based, human; settings: for ratio relative to DHCC: fraction normalised to 1α,25-DHCC = 1.00; for fraction (concentration for 50% NBT reduction in HL-60 cells / concentration for half-maximal increase in intestinal Ca^2+ transport): smaller ratio = higher relative cell differentiating capacity; for selectivity of action / better ratio than 1α,25-DHCC (fold): differentiation versus intestinal Ca transport
Text: Therefore, it should be very advantageous to develop compounds with a high selectivity of biological action. In other words, compounds in which the ratio between the induction of cell differentiation and calciotropic effects, e.g. the stimulation of intestinal Ca transport, is changed compared to 1α,25-DHCC. The ratio between differentiation-inducing capacity and the stimulation of intestinal Ca transport is defined as the fraction between the concentration at which 50% NBT reduction in HL-60 cells is obtained, and the concentration at which a half-maximal increase in intestinal Ca^2+ transport is reached. The smaller the ratio, the higher the relative cell differentiating capacity.

[5] = biological target: T1, calf thymus intracellular vitamin D receptor (VDR) (Bos taurus, UniProt Q28037); assay: Affinity to intracellular vitamin D receptor (displacement of 3H-1α,25-DHCC); assay type: binding; settings: 10^-13 to 10^-7 M
T1 construct: 3H-1α,25-DHCC displacement
T1 sequence (Q28037 1-426): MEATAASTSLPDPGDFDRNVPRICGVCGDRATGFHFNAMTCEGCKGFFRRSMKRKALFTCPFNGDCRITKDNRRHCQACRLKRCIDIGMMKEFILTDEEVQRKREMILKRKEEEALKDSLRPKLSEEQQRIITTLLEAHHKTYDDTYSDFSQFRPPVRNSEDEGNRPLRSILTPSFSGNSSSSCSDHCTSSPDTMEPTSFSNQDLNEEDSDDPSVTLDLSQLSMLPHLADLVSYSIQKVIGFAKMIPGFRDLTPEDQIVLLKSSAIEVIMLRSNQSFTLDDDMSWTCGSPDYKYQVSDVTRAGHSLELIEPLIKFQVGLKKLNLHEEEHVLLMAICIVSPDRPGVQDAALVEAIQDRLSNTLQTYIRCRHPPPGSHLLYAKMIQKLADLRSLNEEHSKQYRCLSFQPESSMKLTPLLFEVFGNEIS
Text: In this assay, ^3 H-1α,25-dihydroxycholecalciferol (^3 H-1α,25-DHCC), which is specifically bound to the VDR, is replaced by the tested compounds. Especially the tested compounds 11, 13 and 14 have a very high VDR-affinity. A high VDR-affinity is indicative for biologically active substances.

[6] = biological target: T2, human vitamin D binding protein (DBP) (Homo sapiens, UniProt P02774); assay: Affinity to vitamin D binding protein (competition with 3H-1α,25-DHCC); settings: DBP purified from total human serum; 10^-11 to 2.5×10^-6 M; FIGS. 1 and 2
T2 sequence (P02774 17-474): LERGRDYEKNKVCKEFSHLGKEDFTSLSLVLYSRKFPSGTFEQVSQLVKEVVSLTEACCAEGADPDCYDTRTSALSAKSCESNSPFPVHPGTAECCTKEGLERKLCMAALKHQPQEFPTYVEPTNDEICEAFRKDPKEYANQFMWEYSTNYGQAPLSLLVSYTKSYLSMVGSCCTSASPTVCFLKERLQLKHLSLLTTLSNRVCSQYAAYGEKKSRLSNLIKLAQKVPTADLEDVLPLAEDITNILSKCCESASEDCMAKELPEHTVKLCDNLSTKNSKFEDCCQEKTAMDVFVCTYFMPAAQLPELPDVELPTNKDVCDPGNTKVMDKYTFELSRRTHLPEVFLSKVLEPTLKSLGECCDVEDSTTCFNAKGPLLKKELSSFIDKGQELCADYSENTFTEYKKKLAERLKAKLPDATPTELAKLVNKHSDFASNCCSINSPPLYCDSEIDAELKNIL
Procedure: Vitamin D binding protein (DBP) is the specific carrier for vitamin D and its metabolites in blood. The biological activity of vitamin D compounds depends on their binding to DBP, because strong binding to DBP will reduce the intracellular access to the VDR. Binding to the DBP may also influence the half-life of the vitamin D derivatives in circulation. Weak binders are rapidly matabolized, which is a favourable aspect in topical application. In the assay DBP is incubated with ^3 H-1α,25-DHCC and 1α,25-DHCC or with several vitamin D compounds according to the invention. To this purpose, the vitamin compounds are dissolved in ethanol in concentrations ranging from 10^-11 to 2.5×10^-6 M. The percentage bound/unbound ^3 H-1α,25-DHCC is then calculated. DBP is purified from total human serum. The results are shown in the appended FIGS. 1 and 2. FIGS. 1 and 2 show the binding of vitamin D compounds to human vitamin D binding protein. [^3 H]1α,25(OH)2 D3 =^3 H-1α,25-DHCC; in both Figures .circle-solid.=1α,25-DHCC (known compound); in FIG. 1 .tangle-solidup.=compound 13 and .gradient.=compound 14; in FIG. 2 Δ=compound 11.

SMILES	induction of differentiation and maturation of the HL-60 cells [1]	relative increase in Ca^2+ influx (1α,25-DHCC = 100) ([2]; experiment 1)	relative increase in Ca^2+ influx (1α,25-DHCC = 100) ([2]; experiment 2)	increase in Ca^2+ -reabsorption [3] [mmol/cm^2 /h]	ratio relative to DHCC [4]	fraction (concentration for 50% NBT reduction in HL-60 cells / concentration for half-maximal increase in intestinal Ca^2+ transport) [4]	VDR-affinity [5]	binding to the DBP, compared to the known 1α,25-DHCC [6]	differentiation in the cytological test (non-specific esterase and May-Grunwald Giemsa) [1]	concentration range of optimum effect [1]	NBT-reduction inducing capacity relative to 1α,25-DHCC (fold stronger) [1]	stimulation of intestinal calcium absorption compared with 1α,25-DHCC [2]	stimulation of renal Ca-reabsorption compared with compound 12 and 1α,25-DHCC [3]	selectivity of action / better ratio than 1α,25-DHCC (fold) [4] [×]
C=C1/C(=C\C=C2/CCC[C@]3(C)[C@@H]([C@H](C)CCCC(C)(C)O)CC[C@@H]23)C[C@@H](O)C[C@@H]1O [1α,25-DHCC, 1α,25-dihydroxycholecalciferol, reference compound]	induce differentiation and maturation	100	100	13.4	1.00	107								
C=C1/C(=C\C=C2/CCC[C@@]3(C)C2CCC3[C@H](C)CCCC(O)(C2CC2)C2CC2)C[C@@H](O)C[C@@H]1O (stereo partly drawn) [Compound 11]	induce differentiation and maturation	79		2.4	0.13	14.4	very high	bind rather weakly	good differentiators	10^-8 to 10^-7 M	about 5 ×	weaker stimulators	weaker stimulators	8
C=C1/C(=C\C=C2/CCC[C@@]3(C)C2CCC3[C@H](C)CCCC(O)(C(C)(C)C)C(C)(C)C)C[C@@H](O)C[C@@H]1O (stereo partly drawn) [Compound 12]	induce differentiation and maturation	99		12.8	0.28	29.7					about 5 ×			4
C=C1/C(=C\C=C2/CCC[C@@]3(C)C2CCC3[C@H](C)CCCC(O)(C(C)C)C(C)C)C[C@@H](O)C[C@@H]1O (stereo partly drawn) [Compound 13]	induce differentiation and maturation		65	-3.7	0.02	2.5	very high	very weak binder	good differentiators	10^-8 to 10^-7 M	about 10 ×	weaker stimulators	weaker stimulators	50
C=C1/C(=C\C=C2/CCC[C@@]3(CC)C2CCC3[C@H](C)CCCC(O)(C(C)C)C(C)C)C[C@@H](O)C[C@@H]1O (stereo partly drawn) [Compound 14]	induce differentiation and maturation		78		0.02	2.6	very high	bind rather weakly			about 10 ×	weaker stimulators		50
